The values that follow come from ChEMBL document CHEMBL6177939, “The role of silicon in drug discovery: a review” (RSC Med Chem, 2024).

≈ marks a conversion by molar mass, not a printed value. Where only a bound is given, the exact number is not on record here.

One data set deals with Entamoeba histolytica. The experiment in a line: Antiparasitic activity against Entamoeba histolytica HM-1:IMSS assessed as reduction in parasite growth incubated for 48 hrs by MTT assay. The format is functional, organism-based. In general terms: Formazan colour is commonly taken as a measure of viable cells.
A further data set has as its system Giardia intestinalis. Put plainly: Antiparasitic activity against Giardia intestinalis Portland 1 assessed as reduction in parasite growth incubated for 48 hrs by MTT assay. In kind it is functional, organism-based. The conditions noted are these: Giardia duodenalis, Portland 1, 48 h.
The next data set deals with Aedes aegypti. Put plainly: […] activity against Aedes aegypti assessed as protection time at 0.5 microg/cm. In kind it is functional.
The target of data set [1] is Sigma non-opioid intracellular receptor 1 (Cavia porcellus, UniProt Q60492). The experiment in a line: Binding affinity to guinea pig sigma 1 receptor assessed as inhibition constant.
A further data set relates to Vibrio cholerae. The experiment in a line: Antibacterial activity against Vibrio cholerae assessed as inhibition of bacterial growth. The format is functional.
Data set [2] concerns Escherichia coli. The experiment in a line: Antibacterial activity against Escherichia coli assessed as reduction in bacterial growth incubated for 12 hrs by broth micr-dilution method. In kind it is functional.
Data set [3] relates to Staphylococcus aureus. Put plainly: Antibacterial activity against Staphylococcus aureus assessed as reduction in bacterial growth incubated for 12 hrs by broth micr-dilution method. The format is functional.
The next data set has as its system Bacillus subtilis. Put plainly: Antibacterial activity against Bacillus subtilis assessed as reduction in bacterial growth incubated for 12 hrs by broth micr-dilution method. In kind it is functional.
The subject of the next data set is HCT-116. Put plainly: Antiproliferative activity against human HCT-116 cells assessed as reduction in cell viability incubated for 72 hrs by MTT assay. To be noted: HCT-116, 72 h. The format is functional, cell-based.
The next data set relates to BJAB. The experiment in a line: Cytotoxicity against human BJAB cells assessed as lethal dose measured after 48 hrs. The conditions noted are these: read-out: LD50 (the source's name). The format is functional.
The test system of data set [4] is Escherichia coli. Put plainly: Antibacterial activity against Escherichia coli ATCC 25922 assessed as reduction in cell growth incubated for 18 hrs by two-fold serial dilution method. In kind it is functional.
A further data set deals with Acinetobacter baumannii. Put plainly: Antibacterial activity against Acinetobacter baumannii ATCC 19606 assessed as reduction in cell growth incubated for 18 hrs by two-fold serial dilution method. In kind it is functional.
The subject of data set [5] is Pseudomonas aeruginosa. Put plainly: Antibacterial activity against Pseudomonas aeruginosa ATCC 27853 assessed as reduction in cell growth incubated for 18 hrs by two-fold serial dilution method. The format is functional.
For data set [6], the system named is Staphylococcus aureus. The experiment in a line: Antibacterial activity against Staphylococcus aureus ATCC 25923 assessed as reduction in cell growth incubated for 18 hrs by two-fold serial dilution method. In kind it is functional.
In the next data set the test system is Aspergillus niger. Put plainly: Antifungal activity against Aspergillus niger ATCC 16888 assessed as reduction in fungal growth incubated for 24 hrs by broth micro-dilution method. The format is functional. (In general: In broth dilution the organism is exposed to a series of concentrations in liquid medium.)
Data set [7] deals with HepG2. Put plainly: Cytotoxicity against human HepG2 cells assessed as reduction in cell viability by XTT assay. The format is functional, cell-based.
A further data set relates to Bacillus sp. The experiment in a line: Antibacterial activity against Bacillus sp. ATCC 19986 assessed as reduction in bacterial growth incubated for 24 hrs by CLSI micro-dilution method. The format is functional. To be noted: Bacillus sp. (in: firmicutes).
The test system of a further data set is Penicillium chrysogenum. The experiment in a line: Antifungal activity against Penicillium chrysogenum ATCC 11709 assessed as reduction in fungal growth incubated for 24 hrs by CLSI micro-dilution method. The format is functional.
The next data set has as its system MCF7. Put plainly: Cytotoxicity against human MCF7 cells assessed as reduction in cell viability by XTT assay. In kind it is functional, cell-based.
Data set [8] deals with Pseudomonas aeruginosa. The experiment in a line: Antibacterial activity against Pseudomonas aeruginosa ATCC 27853 assessed as reduction in bacterial growth incubated for 24 hrs by CLSI micro-dilution method. The format is functional.
In the next data set the test system is Fusarium solani. The experiment in a line: Antifungal activity against Fusarium solani ATCC 20327 assessed as reduction in fungal growth incubated for 24 hrs by CLSI micro-dilution method. In kind it is functional.
Data set [9] can be described thus: Acute toxicity in po dosed mouse assessed as lethal dose. In kind it is organism-based. To be noted: in vivo.
Another data set deals with Mythimna separata. The experiment in a line: Toxicity in Mythimna separata assessed as lethal dose. The format is organism-based.
Data set [10] concerns HepG2. The experiment in a line: Antiproliferative activity against human HepG2 cells. The format is functional, cell-based.
A further data set has as its system HT-1080. Put plainly: Cytotoxicity against human HT-1080 cells assessed as reduction in cell growth by measuring lethal concentration for 72 hrs by MTT assay. In kind it is functional.
For another data set, the system named is NIH3T3. The experiment in a line: Cytotoxicity against mouse NIH3T3 cells assessed as reduction in cell growth by measuring lethal concentration for 72 hrs by MTT assay. In kind it is toxicity, cell-based. To be noted: nih3t3, 72 h.
For the next data set, the system named is MG-22A. The experiment in a line: Cytotoxicity against mouse MG-22A cells assessed as reduction in cell growth by measuring lethal concentration for 72 hrs by MTT assay. The format is functional.
Data set [11] deals with Angiotensin-converting enzyme (Homo sapiens, UniProt P12821). Put plainly: Inhibition of ACE (unknown origin) using N-[3-(2-furyl)-acryloyl]- L -phenylalanylglycylglycin as substrate incubated for 5 mins.
The next data set has as its system MDA-MB-435. Put plainly: Cytotoxicity against human MDA-MB-435 cells assessed as reduction in cell viability incubated for 48 hrs by SRB assay. The conditions noted are these: MDA-MB-435, 48 h. The format is functional, cell-based. In general terms: The SRB assay estimates cell density from bound dye.
The subject of the next data set is P388. Put plainly: Antiproliferative activity against mouse P388 cells. In kind it is functional, cell-based.

Sigma non-opioid intracellular receptor 1, sequence (Q60492 whole entry): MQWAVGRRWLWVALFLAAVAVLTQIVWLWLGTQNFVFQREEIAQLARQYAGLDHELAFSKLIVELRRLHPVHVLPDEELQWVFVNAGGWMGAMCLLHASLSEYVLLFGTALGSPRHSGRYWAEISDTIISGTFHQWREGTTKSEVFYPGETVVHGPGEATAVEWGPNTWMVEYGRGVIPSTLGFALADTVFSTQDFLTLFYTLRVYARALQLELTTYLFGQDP
Angiotensin-converting enzyme, sequence (P12821 whole entry): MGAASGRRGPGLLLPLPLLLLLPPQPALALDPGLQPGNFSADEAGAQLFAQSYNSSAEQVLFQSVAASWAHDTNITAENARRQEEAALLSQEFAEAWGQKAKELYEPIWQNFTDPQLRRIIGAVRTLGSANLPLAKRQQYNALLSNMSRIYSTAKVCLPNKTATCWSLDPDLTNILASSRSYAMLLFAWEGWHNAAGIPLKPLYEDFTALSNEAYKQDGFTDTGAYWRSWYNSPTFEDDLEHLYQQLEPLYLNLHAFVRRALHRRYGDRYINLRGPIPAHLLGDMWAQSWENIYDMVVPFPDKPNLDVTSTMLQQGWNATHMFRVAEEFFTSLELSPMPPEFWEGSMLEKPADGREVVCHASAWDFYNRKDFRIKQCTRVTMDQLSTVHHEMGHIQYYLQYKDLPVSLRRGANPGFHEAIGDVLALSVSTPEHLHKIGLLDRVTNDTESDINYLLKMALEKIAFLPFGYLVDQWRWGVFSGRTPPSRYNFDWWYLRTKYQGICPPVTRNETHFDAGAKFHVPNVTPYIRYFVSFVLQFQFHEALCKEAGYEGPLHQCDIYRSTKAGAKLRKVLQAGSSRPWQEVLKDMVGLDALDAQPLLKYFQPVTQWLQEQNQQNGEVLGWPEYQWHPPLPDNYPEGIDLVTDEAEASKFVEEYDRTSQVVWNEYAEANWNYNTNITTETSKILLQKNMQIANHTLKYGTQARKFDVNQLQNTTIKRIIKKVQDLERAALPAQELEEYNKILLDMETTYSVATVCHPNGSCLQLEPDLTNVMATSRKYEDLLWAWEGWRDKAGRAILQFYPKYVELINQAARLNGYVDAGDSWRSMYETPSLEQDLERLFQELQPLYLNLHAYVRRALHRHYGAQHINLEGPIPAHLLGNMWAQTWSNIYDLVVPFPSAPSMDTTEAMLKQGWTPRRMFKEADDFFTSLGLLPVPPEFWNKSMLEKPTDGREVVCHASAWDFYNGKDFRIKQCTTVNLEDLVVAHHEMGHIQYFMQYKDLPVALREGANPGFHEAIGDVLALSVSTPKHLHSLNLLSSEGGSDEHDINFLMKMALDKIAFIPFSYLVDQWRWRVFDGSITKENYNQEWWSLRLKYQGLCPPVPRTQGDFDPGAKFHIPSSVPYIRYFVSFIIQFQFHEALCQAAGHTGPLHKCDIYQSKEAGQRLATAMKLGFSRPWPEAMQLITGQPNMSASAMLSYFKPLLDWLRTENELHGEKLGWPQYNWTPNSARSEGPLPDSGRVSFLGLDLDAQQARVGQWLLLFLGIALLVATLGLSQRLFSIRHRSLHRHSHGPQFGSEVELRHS

With `CC1C[N+]23CC(C)O[Si-]2(CCCNCC/N=C/c2ccc4ccc5cccc6ccc2c4c56)(O1)OC(C)C3` (configuration not stated), the IC50 in the data set on Entamoeba histolytica was found to be 1140 nM; with Giardia intestinalis, 44600 nM.

Consider `CC1(C)CCN(C(=O)C2=CCCCC2)CC1`, for which the Time with Aedes aegypti came to 520 min.

On to `COc1ccc(CN2CC[Si]3(CCCc4ccccc43)CC2)cc1`, for which the Ki in data set [1] was 300 nM.

With `Cc1cc(=O)n(Cc2cn(CCC[Si-]345OCC[N+]3(CCO4)CCO5)nn2)c(=O)n1Cc1cn(CCC[Si-]234OCC[N+]2(CCO3)CCO4)nn1` (configuration not stated), the MIC50 in the data set with Vibrio cholerae, with Escherichia coli [2], in the data set on Staphylococcus aureus [3] and in the data set with Bacillus subtilis was 180 ng/mL (≈ 0.25 µM) each time.

Regarding `CC[Si](CC)(CC)OC1OC(=O)C(Br)=C1Br` (configuration not stated), the IC50 in the data set on HCT-116 is 1600 nM.

Regarding `O=c1c(F)cn(Cc2cn(CCC[Si-]345OCC[N+]3(CCO4)CCO5)nn2)c(=O)n1Cc1cn(CCC[Si-]234OCC[N+]2(CCO3)CCO4)nn1` (configuration not stated), the MIC50 in the data set with Vibrio cholerae, with Escherichia coli [2], in the data set on Staphylococcus aureus [3] and in the data set on Bacillus subtilis was 180 ng/mL (≈ 0.249 µM) in each case.

`CC(C)(C)[Si](C)(C)OC[C@H]1C[C@@H](n2cc(Br)c(=O)[nH]c2=O)C=C1CO`: the CC50 with BJAB came out at 46000 nM.

As for `CC1C[N+]23CC(C)O[Si-]2(CCCN2C(=O)c4ccccc4C2=O)(O1)OC(C)C3` (configuration not stated), the MIC with Escherichia coli [4], with Acinetobacter baumannii, in the data set on Pseudomonas aeruginosa [5] and in the data set with Staphylococcus aureus [6] was 200 ng/mL (≈ 0.494 µM) throughout.

With `Nc1ccc(O)c(/C=N/CCC[Si-]234OCC[N+]2(CCO3)CCO4)c1` (configuration not stated), the MIC in the data set on Aspergillus niger, in the data set with Bacillus sp., in the data set on Penicillium chrysogenum, in the data set with Pseudomonas aeruginosa [8] and in the data set with Fusarium solani was 1200 ng/mL (≈ 3.41 µM) throughout. Further, the 50% inhibitory concentration (IC50) in the data set on HepG2 [7] amounted to 150000 ng/mL (≈ 427 µM); in the data set with MCF7, 65000 ng/mL (≈ 185 µM).

`CCC[Si](C)(COC(N)=O)COC(N)=O`: the LD50 in [9] is > 1000 mg/kg.

Regarding `C(=N\CCNCCC[Si-]123OCC[N+]1(CCO2)CCO3)/c1ccc2ccc3cccc4ccc1c2c34` (configuration not stated), the IC50 with Entamoeba histolytica was found to be 56900 nM; in the data set with Giardia intestinalis, 560 nM.

As for `C[Si](C)(C)c1cc(C(F)(C(F)(F)F)C(F)(F)F)cc(Br)c1NC(=O)c1cccc(NC(=O)c2ccccc2)c1`, the median lethal concentration (LC50) in the data set with Mythimna separata was determined as 2000 ng/mL (≈ 3.15 µM).

Consider `COc1ccc([Si](C)(C)[C@@H]2[C@H](CC(=O)N3CCC[C@H]3CO)O[C@@]3(C(=O)N(Cc4cccc(I)c4)c4ccccc43)[C@@H]2C)cc1`, for which the 50% effective concentration (EC50) with HepG2 [10] was determined as 16600 nM.

For the molecule `CCCCCCCCCCOCC[N+]1(CCC[Si](C)(C)C)CCc2ccccc2C1.[I-]` (configuration not stated), the LC50 in the data set with HT-1080, in the data set with NIH3T3 and in the data set with MG-22A was 100 ng/mL in each case.

Consider `c1ccc(CCN2CC[Si]3(CCCc4ccccc43)CC2)cc1`, for which the inhibitory constant (Ki) in [1] was 300 nM.

`CC(C)CC(NC(=O)c1ccccc1)[Si](C)(O)CC(C)C(=O)N1CCC[C@H]1C(=O)O` (mixture of isomers) registered an IC50 in data set [11] of 14 nM.

`CC(C)CC(NC(=O)c1ccccc1)[Si](O)(O)CC(C)C(=O)N1CCC[C@H]1C(=O)O` (mixture of isomers): the half-inhibitory concentration (IC50) in data set [11] was 3040 nM.

For `CC[C@@]1(O)C(=O)OCc2c1cc1n(c2=O)Cc2cc3ccccc3nc2-1` [CAMPTOTHECIN], in the data set on MDA-MB-435, the concentration for half-maximal inhibition (IC50) was determined as 15 nM.

As for `CCN(CC)C(=O)c1cccc(C)c1` [DIETHYLTOLUAMIDE], the Time with Aedes aegypti came out at 616 min.

Take `CCCC(C)(COC(N)=O)COC(N)=O` [MEPROBAMATE]: the median lethal dose (LD50) in [9] was 700 mg/kg.

As for `O=C1OC(O)C(Br)=C1Br` (configuration not stated) [MUCOBROMIC ACID], the concentration for half-maximal inhibition (IC50) in the data set on HCT-116 worked out at 1300 nM.

As for `C=C1C[C@](OC)([C@H](O)C(=O)N[C@H]2OCO[C@H]3[C@@H]2O[C@H](C[C@H](O)CO)C(C)(C)[C@@H]3OC)O[C@H](C)[C@@H]1C` [MYCALAMIDE A], the midpoint of inhibition in the data set with P388, the IC50, lay at 0.1 ng/mL (≈ 0.000199 µM).

Regarding `C=C1C[C@](OC)([C@H](O)C(=O)N[C@H]2OCO[C@H]3[C@@H]2O[C@H](C[C@@H](CO)OC)C(C)(C)[C@@H]3OC)O[C@H](C)[C@@H]1C` [MYCALAMIDE B], 0.1 ng/mL (≈ 0.000193 µM) corresponded to half-maximal inhibition with P388 (IC50).

Usually IC50 stands for the concentration that inhibits the measured activity by half. What is called Ki is the equilibrium dissociation constant of an inhibitor or competing ligand from its target. By MIC50 is commonly meant an inhibitory concentration at the 50% level, which refers to growth in some studies and to a panel of isolates in others. What is called MIC is the smallest concentration in the dilution series that meets the test's criterion for growth inhibition. As a reminder, the LD50 is the dose expected to kill half of the subjects tested. In general, LC50 refers to the concentration lethal to half of the exposed cells or organisms. In general, EC50 refers to the midpoint of the concentration-response curve. Read a low EC50 as greater potency.
